Experimental data reported in patent US11541055B2, “Inhibitors of human immunodeficiency virus replication” (ViiV Healthcare UK (No. 5) LIMITED, priority 2018, dated 2023).

Assays:
[1] = test system: recombinant NL4-3 virus (Renilla luciferase) in MT-2 cells; assay: HIV cell culture assay (antiviral activity, luciferase readout); type: cell-based; details: Renilla, NL43
Protocol: HIV cell culture assay—MT-2 cells, 293T cells and the proviral DNA clone of NL4-3 virus were obtained from the NIH AIDS Research and Reference Reagent Program. MT-2 cells were propagated in RPMI 1640 media supplemented with 10% heat inactivated fetal bovine serum (FBS), […]. The 293T cells were propagated in DMEM media supplemented with 10% heat inactivated FBS, […] penicillin G and […] streptomycin. A recombinant NL40.3 proviral clone, in which a section of the nef gene was replaced with the Renilla luciferase gene, was used to make the reference virus used in these studies. The recombinant virus was prepared through transfection of the recombinant NL4-3 proviral clone into 293T cells using Transit-293 Transfection Reagent from Minis Bio LLC (Madison, Wis.). Supernatent was harvested after 2-3 days and the amount of virus present was titered in MT-2 cells using luciferase enzyme activity as a marker by measuring luciferase enzyme activity. Luciferase was quantitated using the EnduRen Live Cell Substrate from Promega (Madison, Wis.). Antiviral activities of compounds toward the recombinant virus were quantified by measuring luciferase activity in MT-2 cells infected for 4-5 days with the recombinant virus in the presence of serial dilutions of the compound.
The 50% effective concentration (EC50) was calculated by using the exponential form of the median effect equation where (Fa)=1/[1+(ED50/drug conc.)m] (Johnson V A, Byington R T. Infectivity Assay. In Techniques in HIV Research. ed. Aldovini A, Walker B D. 71-76. New York: Stockton Press. 1990). The 50% inhibitory concentration (EC50) was calculated by using the exponential form of the median effect equation where percent inhibition=1/[1+(EC50/drug concentration)m], where m is a parameter that reflects the slope of the concentration-response curve.

[2] = Compound cytotoxicity, XTT-based colorimetric assay; type: cell-based; details: human; uninfected MT2 cells, day 4, XTT
Protocol: Compound cytotoxicity and the corresponding CC50 values were determined using the same protocol as described in the antiviral assay except that uninfected cells were used. Cytotoxicity was assessed on day 4 in uninfected MT2 cells by using a XTT (2,3-bis[2-Methoxy-4-nitro-5-sulfophenyl]-2H-tetrazolium-5-carboxyanilide inner salt)-based colorimetric assay (Sigma-Aldrich, St Louis, Mo.).

Row | Compound | EC50 [1] [nM] | CC50 at 4 days [2] [nM]
1 | Cc1cc(-c2ccc3c(=O)n(-c4ccc(Cl)c5c(NS(=O)(=O)C6CC6)nn(CC(F)F)c45)c([C@H](Cc4cc(F)cc(F)c4)NC(=O)Cn4nc(C(F)F)c5c4C(F)(F)[C@@H]4C[C@H]54)nc3c2)nc(C)n1 (atropisomer, axis not shown; (P)) [Example 85, N—((S)-1-((3P)-3-(4-chloro-3-(cyclopropanesulfonamido)-1-(2,2-difluoroethyl)-1H-indazol-7-yl)-7-(2,6-dimethylpyrimidin-4-yl)-4-oxo-3,4-dihydroquinazolin-2-yl)-2-(3,5-difluorophenyl)ethyl)-2-((3bS,4aR)-3-(difluoromethyl)-5,5-difluoro-3b,4,4a,5-tetrahydro-1H-cyclopropa[3,4]cyclopenta[1,2-c]pyrazol-1-yl)acetamide] | 0.088 | > 500
2 | Cc1nc(C)c(F)c(-c2ccc3c(=O)n(-c4ccc(Cl)c5c(NS(C)(=O)=O)nn(C)c45)c([C@H](Cc4cc(F)cc(F)c4)NC(=O)Cn4nc(C(F)F)c5c4C(F)(F)[C@@H]4C[C@H]54)nc3c2)n1 (atropisomer, axis not shown) [Example 119, N-[(1S)-1-[3-(4-chloro-3-methanesulfonamido-1-methyl-1H-indazol-7-yl)-7-(5-fluoro-2,6-dimethylpyrimidin-4-yl)-4-oxo-3,4-dihydroquinazolin-2-yl]-2-(3,5-difluorophenyl)ethyl]-2-[(2S,4R)-9-(difluoromethyl)-5,5-difluoro-7,8-diazatricyclo[4.3.0.0^2,^4]nona-1(6),8-dien-7-yl]acetamide] | 0.087 | > 500
3 | Cn1nc(NS(C)(=O)=O)c2c(Cl)ccc(-n3c([C@H](Cc4cc(F)cc(F)c4)NC(=O)Cn4nc(C(F)F)c5c4C(F)(F)[C@@H]4C[C@H]54)nc4cc(-c5nccnc5CO)ccc4c3=O)c21 (atropisomer, axis not shown; (P)) [Example 18, N—((S)-1-((3P)-3-(4-chloro-1-methyl-3-(methylsulfonamido)-1H-indazol-7-yl)-7-(3-(hydroxymethyl)pyrazin-2-yl)-4-oxo-3,4-dihydroquinazolin-2-yl)-2-(3,5-difluorophenyl)ethyl)-2-((3bS,4aR)-3-(difluoromethyl)-5,5-difluoro-3b,4,4a,5-tetrahydro-1H-cyclopropa[3,4]cyclopenta[1,2-c]pyrazol-1-yl)acetamide] | 0.099 | > 500
4 | CC(C)c1nccc(-c2ccc3c(=O)n(-c4ccc(Cl)c5c(NS(C)(=O)=O)nn(CC(F)(F)F)c45)c([C@H](Cc4cc(F)cc(F)c4)NC(=O)Cn4nc(C(F)F)c5c4C(F)(F)[C@@H]4C[C@H]54)nc3c2)n1 (atropisomer, axis not shown) [Example 108] | 0.12 | > 500
5 | Cc1nc(C)c(C)c(-c2ccc3c(=O)n(-c4ccc(Cl)c5c(NS(C)(=O)=O)nn(CC(F)(F)F)c45)c([C@H](Cc4cc(F)cc(F)c4)NC(=O)Cn4nc(C(F)F)c5c4C(F)(F)[C@@H]4C[C@H]54)nc3c2)n1 (atropisomer, axis not shown) [Example 109, N-[(1S)-1-{3-[4-chloro-3-methanesulfonamido-1-(2,2,2-trifluoroethyl)-1H-indazol-7-yl]-4-oxo-7-(2,5,6-trimethylpyrimidin-4-yl)-3,4-dihydroquinazolin-2-yl}-2-(3,5-difluorophenyl)ethyl]-2-[(2S,4R)-9-(difluoromethyl)-5,5-difluoro-7,8-diazatricyclo[4.3.0.0^2,^4]nona-1(6),8-dien-7-yl]acetamide] | 0.11 | > 500
